Test results reported in ChEMBL document CHEMBL1201862, “PubChem BioAssay data set” (2004).
The source made the active and inactive calls.

Columns and labels:
Bcl-2-related protein A1 = target: T1, Bcl-2-related protein A1 (Mus musculus, UniProt Q07440); assay type: functional;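 note: confirmatory dose–response counterscreen on Bfl-1, used to check hits from a UBC13 polyubiquitin inhibitor campaign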
T1 sequence (Q07440 whole entry): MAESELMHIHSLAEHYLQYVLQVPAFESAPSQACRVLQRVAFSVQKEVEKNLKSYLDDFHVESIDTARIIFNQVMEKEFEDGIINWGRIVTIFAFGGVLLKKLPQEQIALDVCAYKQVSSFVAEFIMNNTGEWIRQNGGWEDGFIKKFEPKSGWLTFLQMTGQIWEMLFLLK

[1] = target: T2, Ubiquitin-conjugating enzyme E2 N (Homo sapiens, UniProt P61088); assay type: functional
T2 sequence (P61088 whole entry): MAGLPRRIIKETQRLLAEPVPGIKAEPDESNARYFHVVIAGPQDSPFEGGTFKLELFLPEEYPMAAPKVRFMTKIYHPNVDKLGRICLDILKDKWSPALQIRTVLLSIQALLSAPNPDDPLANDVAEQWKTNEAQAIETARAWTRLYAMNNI

[2] = target: T2, Ubiquitin-conjugating enzyme E2 N; assay type: functional; remark: listed apart in the source
[3] = target: T3, Delta-type opioid receptor (Homo sapiens, UniProt P41143); experiment: HTS Image-Based Screen for Antagonists of the DOR Receptor. [Related pubchem assays (depositor defined):AID1777, AID1785, AID1786, AID2133]; assay type: functional
Mu-type opioid receptor = Mu-type opioid receptor (Homo sapiens, UniProt P35372); experiment: HTS Image-Based Screen for Agonists of the MOR Receptor. [Related pubchem assays (depositor defined):AID1777, AID1785, AID1786, AID2133]; assay type: functional;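 note: imaging of beta-arrestin GFP recruitment into spots after receptor activation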
[4] = target: T3, Delta-type opioid receptor; experiment: HTS Image-Based Screen for Agonists of the DOR Receptor. [Related pubchem assays (depositor defined):AID1777, AID1786, AID2133]; assay type: functional
[5] = target: T4, Kappa-type opioid receptor (Homo sapiens, UniProt P41145); assay type: functional
Beta-galactosidase = Beta-galactosidase (Escherichia coli, UniProt Q8VNN2); assay type: functional
[6] = target: T4, Kappa-type opioid receptor; assay type: functional; remark: listed apart in the source
Vero = experiment: cells; assay type: functional; details: Chlorocebus sabaeus
[7] = target: T5, RNA-editing ligase 1, mitochondrial (Trypanosoma brucei brucei, UniProt P86926); experiment: inhibition of trypanosome RNA editing ligase – biochemical, fluorescence, Trypanosoma brucei, dose response (AID 1117295); assay type: functional
T5 sequence (P86926 whole entry): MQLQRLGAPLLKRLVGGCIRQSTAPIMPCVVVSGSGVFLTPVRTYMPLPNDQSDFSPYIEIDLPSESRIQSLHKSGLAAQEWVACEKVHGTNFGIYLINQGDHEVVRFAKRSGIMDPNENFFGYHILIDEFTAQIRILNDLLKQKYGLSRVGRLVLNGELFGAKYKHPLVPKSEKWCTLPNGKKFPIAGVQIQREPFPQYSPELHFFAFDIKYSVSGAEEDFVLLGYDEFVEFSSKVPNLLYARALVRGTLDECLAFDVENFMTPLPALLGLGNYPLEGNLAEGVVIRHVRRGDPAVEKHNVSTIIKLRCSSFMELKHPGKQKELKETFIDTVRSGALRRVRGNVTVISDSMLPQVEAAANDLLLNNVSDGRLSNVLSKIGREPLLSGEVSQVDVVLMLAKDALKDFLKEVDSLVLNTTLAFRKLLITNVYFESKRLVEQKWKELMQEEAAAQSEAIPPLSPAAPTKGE

Cannabinoid receptor 2 [8] = target: T6, Cannabinoid receptor 2 (Homo sapiens, UniProt P34972); experiment: SAR analysis of antagonists of the Cannabinoid Receptor 2 using an Image-Based Assay - Set 2. [Related pubchem assays (depositor defined):AID1961, AID1965]; assay type: functional
[9] = target: T7, G-protein coupled receptor 55 (Homo sapiens, UniProt Q9Y2T6); experiment: SAR analysis of selective Agonists of GPR55 using an Image-Based Assay - Set 2. [Related pubchem assays (depositor defined):AID1961, AID1965]; assay type: functional
Cannabinoid receptor 2 [10] = target: T6, Cannabinoid receptor 2; experiment: SAR analysis of agonists of the Cannabinoid Receptor 2 using an Image-Based Assay - Set 2. [Related pubchem assays (depositor defined):AID1961, AID1965]; assay type: functional
[11] = target: T8, G-protein coupled receptor 35 (Homo sapiens, UniProt Q9HC97); experiment: SAR analysis of Agonists of the GPR35 Receptor using an Image-Based Assay - Set 3. [Related pubchem assays (depositor defined):AID1961, AID1965]; assay type: functional
Cannabinoid receptor 1 [12] = target: T9, Cannabinoid receptor 1 (Homo sapiens, UniProt P21554); experiment: SAR analysis of antagonists of the Cannabinoid Receptor 1 using an Image-Based Assay - Set 3. [Related pubchem assays (depositor defined):AID1961, AID1965]; assay type: functional
Cannabinoid receptor 1 [13] = target: T9, Cannabinoid receptor 1; experiment: SAR analysis of agonists of the Cannabinoid Receptor 1 using an Image-Based Assay - Set 3. [Related pubchem assays (depositor defined):AID1961, AID1965]; assay type: functional
[14] = target: T8, G-protein coupled receptor 35; experiment: SAR analysis of Antagonists of the GPR35 Receptor using an Image-Based Assay - Set 4. [Related pubchem assays (depositor defined):[…]]; assay type: functional
[15] = Trypanosoma cruzi growth suppression in host cells – NIH3T3 host cells, beta-gal luminescence, confirmation (AID 2044); assay type: functional, cell-based;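 note: intracellular parasites grown in NIH/3T3 mouse fibroblasts as host cells; luminescent beta-galactosidase reporter signal from transgenic T. cruzi replicating inside host cells; inhibitors lower the luminescence signal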
[16] = NIH3T3 cell viability loss – ATP luminescence, mouse fibroblasts, counter-screen, dose response (AID 2010); assay type: functional, cell-based;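 note: cells exposed to compound for about 90 hours before reading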
[17] = target: T7, G-protein coupled receptor 55; experiment: selective activators of receptor GPR55 – imaging, U2OS cells, beta-arrestin-GFP redistribution, primary screen (AID 1961); assay type: functional
[18] = target: T10, Short transient receptor potential channel 4 (Mus musculus, UniProt Q9QUQ5); experiment: calcium entry via TRPC4 opening agents – cell-based, HEK293 TRPC4/mu-opioid, Fluo-4 calcium, dose response (AID 434937); assay type: functional
T10 sequence (Q9QUQ5 whole entry): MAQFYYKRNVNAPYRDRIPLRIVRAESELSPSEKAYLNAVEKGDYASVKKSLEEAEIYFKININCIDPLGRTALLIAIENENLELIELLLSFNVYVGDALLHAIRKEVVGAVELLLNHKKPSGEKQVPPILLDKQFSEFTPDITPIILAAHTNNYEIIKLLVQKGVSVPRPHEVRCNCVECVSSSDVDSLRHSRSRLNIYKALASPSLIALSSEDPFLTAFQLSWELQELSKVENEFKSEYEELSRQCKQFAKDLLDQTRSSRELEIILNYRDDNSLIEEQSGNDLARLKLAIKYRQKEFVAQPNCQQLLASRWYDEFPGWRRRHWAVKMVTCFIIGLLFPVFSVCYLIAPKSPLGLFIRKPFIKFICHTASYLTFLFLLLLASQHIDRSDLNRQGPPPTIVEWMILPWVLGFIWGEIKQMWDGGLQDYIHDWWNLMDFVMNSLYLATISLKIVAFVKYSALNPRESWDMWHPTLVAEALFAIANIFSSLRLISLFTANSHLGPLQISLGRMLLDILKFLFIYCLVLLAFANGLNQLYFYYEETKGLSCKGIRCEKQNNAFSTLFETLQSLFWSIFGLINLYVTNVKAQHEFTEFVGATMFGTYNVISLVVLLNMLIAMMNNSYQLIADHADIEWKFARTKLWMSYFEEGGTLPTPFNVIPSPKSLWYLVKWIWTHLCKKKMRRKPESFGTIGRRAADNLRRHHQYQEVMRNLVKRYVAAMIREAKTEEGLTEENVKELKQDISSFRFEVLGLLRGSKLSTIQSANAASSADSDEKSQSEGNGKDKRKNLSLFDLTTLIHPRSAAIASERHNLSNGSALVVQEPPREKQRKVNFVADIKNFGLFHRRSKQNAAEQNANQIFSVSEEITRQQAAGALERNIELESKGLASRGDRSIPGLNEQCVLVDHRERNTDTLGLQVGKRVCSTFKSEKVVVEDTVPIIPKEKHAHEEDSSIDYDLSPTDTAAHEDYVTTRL

HEK293 [19] = experiment: inhibition of NOD1-driven NF-kB reporter – cell-based, luminescence, uHTS, primary screen (AID 1578); assay type: functional; details: Homo sapiens
HEK293 [20] = experiment: cells; assay type: functional, cell-based; details: Homo sapiens
HEK293 [21] = experiment: cells; assay type: functional, cell-based; details: Homo sapiens; remark: listed apart in the source
[22] = target: Nucleotide-binding oligomerization domain-containing protein 2 (Homo sapiens, UniProt Q9HC29); experiment: inhibition of NOD2-driven NF-kB reporter – cell-based, luminescence, uHTS, HEK293 (AID 1566); assay type: functional
HEK293 [23] = experiment: NOD2 signaling inhibitors in MDP-stimulated cells, cell-based, uHTS, luminescence (AID 2001); assay type: functional; details: Homo sapiens
HEK293 [24] = experiment: cells; assay type: functional, cell-based; details: Homo sapiens; remark: listed apart in the source
[25] = reduction of Shn3 3'UTR-driven luciferase in osteoblasts – cell-based, Clone20 osteoblasts, firefly luciferase, cherry-picked, dose response (AID 624132); assay type: functional;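 note: firefly luciferase luminescence from reporter carrying the Shn3 3'UTR in osteoblasts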
[26] = loss of viability in HepG2 cells – cell-based, CellTiter-Glo, cherry-picked, cytotoxicity control for Shn3 inhibitor project, dose response (AID 624134); assay type: functional
[27] = non-specific 3'UTR reporter inhibition in Clone20-Shn3RL – cell-based, Renilla luciferase, cherry-picked, counter-screen for Shn3 inhibitor project, dose response (AID 624133); assay type: functional
[28] = blockers of HIV-1 ZM109 envelope-driven cell-cell fusion – HeLa effector, CEM target cells, luciferase, cherry-pick, dose response (AID 652058); assay type: functional, cell-based;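 note: luciferase signal from HIV-1 Env mediated cell-cell fusion of effector and target cells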
[29] = HIV-1 AD8 envelope cell-cell fusion blockers – cherry-pick, dose response (AID 652062); assay type: functional, cell-based;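 note: luciferase signal from cell-cell fusion driven by HIV-1 clade B AD8 Env; potency is for inhibitors of fusion seen as a drop in luminescence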
[30] = target: Luciferin 4-monooxygenase (Photinus pyralis, UniProt P08659); experiment: inhibition of purified Photinus pyralis luciferase – biochemical, luminescence, dose response (AID 1891)
[31] = Luminescence Cell-Based Dose Confirmation HTS to Identify Inhibitors of Platelet Dense Granule Release. [Related pubchem assays: 1663 (Primary HTS), 1678 (Summary of Project)]; assay type: functional
[32] = target: T11, Calpain-2 catalytic subunit (Sus scrofa, UniProt P43367); experiment: m-calpain protease blockers, concentration series – biochemical, fluorogenic peptide substrate, dose response (AID 1420); assay type: functional
T11 sequence (P43367 whole entry): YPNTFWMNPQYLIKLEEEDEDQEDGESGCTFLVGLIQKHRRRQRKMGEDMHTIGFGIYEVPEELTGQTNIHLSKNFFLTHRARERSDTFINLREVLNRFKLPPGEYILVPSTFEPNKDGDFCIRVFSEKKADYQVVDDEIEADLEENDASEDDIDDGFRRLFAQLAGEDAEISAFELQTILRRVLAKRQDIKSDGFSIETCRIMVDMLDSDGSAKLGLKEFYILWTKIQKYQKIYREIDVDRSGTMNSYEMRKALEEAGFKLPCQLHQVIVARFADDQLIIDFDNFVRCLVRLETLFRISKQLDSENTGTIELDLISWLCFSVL

Nonstructural protein 1 = Nonstructural protein 1 (Influenza A virus, UniProt Q194T2); assay type: functional, Influenza A virus (A/California/07/2009(H1N1))
Chain of Nonstructural protein 1 (Q194T2 whole entry): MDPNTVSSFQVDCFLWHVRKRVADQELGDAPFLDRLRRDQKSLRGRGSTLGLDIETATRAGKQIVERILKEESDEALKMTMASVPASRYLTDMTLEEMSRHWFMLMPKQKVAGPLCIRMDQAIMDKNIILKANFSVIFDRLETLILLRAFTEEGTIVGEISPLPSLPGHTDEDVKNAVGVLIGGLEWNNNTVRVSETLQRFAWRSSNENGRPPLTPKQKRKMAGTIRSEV

T8 sequence (Q9HC97 whole entry): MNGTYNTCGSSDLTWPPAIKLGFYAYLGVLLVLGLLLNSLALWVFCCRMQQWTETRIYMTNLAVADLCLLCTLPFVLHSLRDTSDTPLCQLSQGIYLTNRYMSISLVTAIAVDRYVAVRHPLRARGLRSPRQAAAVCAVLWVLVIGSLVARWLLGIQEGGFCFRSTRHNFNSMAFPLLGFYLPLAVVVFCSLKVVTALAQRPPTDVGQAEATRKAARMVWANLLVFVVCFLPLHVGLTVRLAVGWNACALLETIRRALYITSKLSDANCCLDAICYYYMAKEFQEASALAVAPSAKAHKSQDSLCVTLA
T7 sequence (Q9Y2T6 whole entry): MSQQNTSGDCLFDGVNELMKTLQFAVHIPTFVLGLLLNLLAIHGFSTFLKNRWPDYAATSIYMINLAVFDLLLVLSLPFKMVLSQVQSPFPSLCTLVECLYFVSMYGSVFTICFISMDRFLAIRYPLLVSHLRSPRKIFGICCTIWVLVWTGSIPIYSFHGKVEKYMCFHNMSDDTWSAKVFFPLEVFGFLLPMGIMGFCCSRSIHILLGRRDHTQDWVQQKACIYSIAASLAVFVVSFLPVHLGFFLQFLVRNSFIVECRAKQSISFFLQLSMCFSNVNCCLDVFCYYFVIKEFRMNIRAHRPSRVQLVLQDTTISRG
T9 sequence (P21554 whole entry): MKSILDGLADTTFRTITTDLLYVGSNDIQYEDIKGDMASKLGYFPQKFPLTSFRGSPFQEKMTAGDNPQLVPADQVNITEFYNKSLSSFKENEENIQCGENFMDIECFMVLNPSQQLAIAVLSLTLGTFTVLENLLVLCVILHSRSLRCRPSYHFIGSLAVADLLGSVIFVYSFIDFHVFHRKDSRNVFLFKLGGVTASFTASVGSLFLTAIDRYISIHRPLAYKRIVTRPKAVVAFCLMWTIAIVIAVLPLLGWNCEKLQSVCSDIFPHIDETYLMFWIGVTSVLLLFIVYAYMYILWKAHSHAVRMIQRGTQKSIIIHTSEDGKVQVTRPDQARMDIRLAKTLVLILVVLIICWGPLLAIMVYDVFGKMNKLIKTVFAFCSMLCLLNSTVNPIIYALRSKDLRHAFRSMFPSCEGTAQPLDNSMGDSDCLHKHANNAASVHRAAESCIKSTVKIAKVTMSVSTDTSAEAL
T6 sequence (P34972 whole entry): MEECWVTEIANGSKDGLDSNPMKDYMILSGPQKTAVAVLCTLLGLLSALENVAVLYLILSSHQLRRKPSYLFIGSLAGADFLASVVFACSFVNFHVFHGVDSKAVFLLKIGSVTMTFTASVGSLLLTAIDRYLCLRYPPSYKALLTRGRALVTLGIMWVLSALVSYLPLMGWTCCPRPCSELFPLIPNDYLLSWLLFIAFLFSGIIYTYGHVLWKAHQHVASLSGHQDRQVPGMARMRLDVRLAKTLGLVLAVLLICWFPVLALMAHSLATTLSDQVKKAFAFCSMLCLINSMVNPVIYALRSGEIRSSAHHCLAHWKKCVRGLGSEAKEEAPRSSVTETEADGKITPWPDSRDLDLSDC
T3 sequence (P41143 whole entry): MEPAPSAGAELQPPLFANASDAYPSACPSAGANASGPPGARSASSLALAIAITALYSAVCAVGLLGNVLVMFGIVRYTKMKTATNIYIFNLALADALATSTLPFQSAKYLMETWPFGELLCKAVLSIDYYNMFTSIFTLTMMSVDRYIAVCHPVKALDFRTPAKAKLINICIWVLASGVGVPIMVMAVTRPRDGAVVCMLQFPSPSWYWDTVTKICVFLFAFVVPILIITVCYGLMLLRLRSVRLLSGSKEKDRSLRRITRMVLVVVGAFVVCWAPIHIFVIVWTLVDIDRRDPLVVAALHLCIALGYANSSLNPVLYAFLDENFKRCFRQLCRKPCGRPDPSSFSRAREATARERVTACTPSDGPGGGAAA
T4 sequence (P41145 whole entry): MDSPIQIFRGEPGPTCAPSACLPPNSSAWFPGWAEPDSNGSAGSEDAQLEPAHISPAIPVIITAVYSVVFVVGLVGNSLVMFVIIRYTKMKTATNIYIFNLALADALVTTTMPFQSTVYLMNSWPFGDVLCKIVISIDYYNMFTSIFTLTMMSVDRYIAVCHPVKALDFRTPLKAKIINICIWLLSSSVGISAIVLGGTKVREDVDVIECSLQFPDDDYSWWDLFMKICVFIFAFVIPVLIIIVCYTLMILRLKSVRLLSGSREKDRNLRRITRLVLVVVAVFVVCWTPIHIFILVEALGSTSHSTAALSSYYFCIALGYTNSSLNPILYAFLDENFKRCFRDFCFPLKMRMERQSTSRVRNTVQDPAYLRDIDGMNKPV
Chain of Nucleotide-binding oligomerization domain-containing protein 2 (Q9HC29 whole entry, the tested form may be a part): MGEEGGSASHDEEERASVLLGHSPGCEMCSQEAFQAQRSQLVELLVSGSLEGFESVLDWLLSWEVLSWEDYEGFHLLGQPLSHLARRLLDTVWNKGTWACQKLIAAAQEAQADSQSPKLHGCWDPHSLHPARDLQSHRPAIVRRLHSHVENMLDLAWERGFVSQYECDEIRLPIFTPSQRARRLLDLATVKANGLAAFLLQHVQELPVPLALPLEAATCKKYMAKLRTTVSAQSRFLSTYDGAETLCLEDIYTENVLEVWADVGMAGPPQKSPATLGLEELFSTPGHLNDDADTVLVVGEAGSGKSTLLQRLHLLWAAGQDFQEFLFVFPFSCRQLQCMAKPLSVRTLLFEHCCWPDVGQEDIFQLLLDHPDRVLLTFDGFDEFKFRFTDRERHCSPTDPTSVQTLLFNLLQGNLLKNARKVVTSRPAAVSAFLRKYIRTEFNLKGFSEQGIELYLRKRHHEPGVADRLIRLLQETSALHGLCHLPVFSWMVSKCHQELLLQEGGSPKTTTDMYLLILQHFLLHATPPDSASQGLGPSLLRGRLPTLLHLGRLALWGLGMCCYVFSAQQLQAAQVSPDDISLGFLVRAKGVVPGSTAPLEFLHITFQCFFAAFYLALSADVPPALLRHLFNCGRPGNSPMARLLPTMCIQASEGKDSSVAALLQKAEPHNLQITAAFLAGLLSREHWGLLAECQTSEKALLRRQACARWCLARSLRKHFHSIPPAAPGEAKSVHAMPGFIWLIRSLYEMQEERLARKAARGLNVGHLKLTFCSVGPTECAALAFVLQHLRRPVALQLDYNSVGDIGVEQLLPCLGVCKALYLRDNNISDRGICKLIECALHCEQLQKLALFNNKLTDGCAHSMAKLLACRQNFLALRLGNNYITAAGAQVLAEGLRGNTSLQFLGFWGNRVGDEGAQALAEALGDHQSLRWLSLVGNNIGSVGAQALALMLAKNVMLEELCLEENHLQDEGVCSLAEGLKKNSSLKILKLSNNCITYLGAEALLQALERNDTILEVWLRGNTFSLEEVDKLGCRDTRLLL
Chain of Mu-type opioid receptor (P35372 whole entry): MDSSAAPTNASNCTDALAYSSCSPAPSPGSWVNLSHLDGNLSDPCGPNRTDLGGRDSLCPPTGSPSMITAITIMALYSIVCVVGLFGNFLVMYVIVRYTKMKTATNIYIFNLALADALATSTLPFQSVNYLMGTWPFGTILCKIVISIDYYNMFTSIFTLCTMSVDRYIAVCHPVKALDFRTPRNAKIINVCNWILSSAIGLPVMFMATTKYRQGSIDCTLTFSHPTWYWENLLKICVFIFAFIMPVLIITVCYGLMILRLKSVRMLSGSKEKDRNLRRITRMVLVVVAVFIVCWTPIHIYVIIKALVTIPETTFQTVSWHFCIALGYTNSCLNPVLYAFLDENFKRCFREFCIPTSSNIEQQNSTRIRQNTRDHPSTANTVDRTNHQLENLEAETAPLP
Chain of Luciferin 4-monooxygenase (P08659 whole entry): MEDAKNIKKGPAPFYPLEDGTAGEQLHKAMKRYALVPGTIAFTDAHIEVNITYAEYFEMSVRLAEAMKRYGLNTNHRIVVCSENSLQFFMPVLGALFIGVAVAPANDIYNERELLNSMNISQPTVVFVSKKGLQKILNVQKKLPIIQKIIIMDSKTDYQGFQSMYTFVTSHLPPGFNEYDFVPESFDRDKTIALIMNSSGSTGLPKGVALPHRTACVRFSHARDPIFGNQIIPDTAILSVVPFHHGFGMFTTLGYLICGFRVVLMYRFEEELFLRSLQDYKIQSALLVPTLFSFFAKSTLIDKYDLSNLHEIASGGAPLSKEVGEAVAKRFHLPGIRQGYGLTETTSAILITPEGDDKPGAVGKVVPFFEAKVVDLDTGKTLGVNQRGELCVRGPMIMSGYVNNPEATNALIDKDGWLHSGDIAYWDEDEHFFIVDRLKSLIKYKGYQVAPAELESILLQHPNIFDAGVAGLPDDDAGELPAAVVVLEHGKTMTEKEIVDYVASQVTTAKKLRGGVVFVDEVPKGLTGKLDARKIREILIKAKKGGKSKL

COc1ccccc1NC(=O)c1cc(S(=O)(=O)N2CCCCCC2)ccc1F
IC50 (Bcl-2-related protein A1): > 20 µM (inactive)
IC50 [1]: 10.6 µM (active)
IC50 [2]: 9.99 µM (active)

COc1ccc(C[C@H]2CN3C(=NC[C@@H]3C(C)C)N2C[C@H](C)NC(=O)c2ccc(C)c(Br)c2)cc1
IC50 [3]: > 32 µM (inactive)
EC50 (Mu-type opioid receptor): > 32 µM (inactive)
EC50 [4]: > 32 µM (inactive)
IC50 [5]: 6.35 µM (active)
EC50 (Beta-galactosidase): > 31.5 µM (inactive)
IC50 [6]: 2.07 µM
IC50 [1]: > 20 µM (inactive)
CC50 (Vero): 16.3 µM (active)
IC50 [7]: > 96.6 µM (inactive)

CC(C)Oc1ccc(S(=O)(=O)N2CCOCC2)cc1NC(=O)c1cc2c(s1)CCCCC2
IC50 (Cannabinoid receptor 2 [8]): > 32 µM (inactive)
EC50 [9]: > 32 µM (inactive)
EC50 (Cannabinoid receptor 2 [10]): > 32 µM (inactive)
EC50 [11]: > 32 µM (inactive)
IC50 (Cannabinoid receptor 1 [12]): 27.5 µM (inactive)
EC50 (Cannabinoid receptor 1 [13]): > 32 µM (inactive)
IC50 [14]: > 32 µM (inactive)

Cn1c(SCC(=O)N2c3ccccc3Sc3ccccc32)nc2ccccc21
EC50 [15]: 2.77 µM (active)
EC50 [16]: > 30 µM (not active)
EC50 [17]: 1.29 µM (active)

Cc1ccc(-n2cc(CNCC3CC(=O)N(C4CC4)C3)c(-c3cccc(C)c3)n2)cc1 (centres undefined)
EC50 [18]: 6.68 µM (active)

Cc1sc2ncnc(N3CCN(S(=O)(=O)c4ccc(Br)cc4)CC3)c2c1C
EC50 (HEK293 [19]): 4.21 µM (active)
IC50 (HEK293 [20]): 4.16 µM (active)
IC50 (HEK293 [21]): 11.6 µM (active)
EC50 [22]: 4.22 µM (active)
IC50 (HEK293 [23]): 5.47 µM (active)
IC50 (HEK293 [24]): > 20 µM (inactive)
AC50 [25]: 3.59 µM (active)
AC50 [26]: 47.8 µM (active)
AC50 [27]: 6.05 µM (active)
AC50 [28]: 21.5 µM (active)
AC50 [29]: 21.2 µM (active)

O=C(NC1CCCN(Cc2ccc(Cl)cc2)C1)C1CCC1 (centres undefined)
EC50 [18]: 1.33 µM (active)

O=C(NNC(=O)c1nn(-c2ccc(F)cc2)ccc1=O)c1ccc(C(F)(F)F)cc1
IC50 (Bcl-2-related protein A1): > 20 µM (inactive)
IC50 [1]: 16.7 µM (active)
IC50 [2]: 10.2 µM (active)

CCN(CC)c1ccc(/C=C(\C#N)C(N)=S)cc1
EC50 [30]: 22.7 µM (active)
EC50 [31]: > 112 µM (not active)
IC50 [32]: 5.92 µM (not active)
IC50 (Nonstructural protein 1): 39.1 µM (active)

CN(C)S(=O)(=O)c1ccc(Cl)c(C(=O)N2CCN(c3ccc([N+](=O)[O-])cc3)CC2)c1
IC50 (Cannabinoid receptor 2 [8]): > 32 µM (inactive)
EC50 [9]: 6.98 µM (active)
EC50 (Cannabinoid receptor 2 [10]): > 32 µM (inactive)
EC50 [11]: > 32 µM (inactive)
IC50 (Cannabinoid receptor 1 [12]): > 32 µM (inactive)
EC50 (Cannabinoid receptor 1 [13]): > 32 µM (inactive)
IC50 [14]: > 32 µM (inactive)
